Laboratory results published in paper PMC6367500, “18β-glycyrrhetyl-3-O-sulfate would be a causative agent of licorice-induced pseudoaldosteronism” (Scientific Reports, 2019).

Columns and labels:
[1] = Plasma and urine levels of GA metabolites in SD rats orally treated with GA (LC-MS/MS); format: in vivo; conditions: GA 0.20 g/kg orally; for concentration at 12 h: female, SD (Sprague-Dawley), rat, plasma, po, 0.2 g/kg
Method: Then, bile samples were collected for 4 h (E).
Female SD rats or EHBRs (9-week-old) were anesthetized by an intraperitoneal (i.p.) injection of urethane (1 g/kg) and their jugular veins were exposed. […] Feces were homogenized in phosphate-buffered saline (PBS; 0.15 M, pH 7.2), centrifuged (1.2 × 10^4 g, 10 min), and the supernatants were collected. After 1 week as a washout period, female SD rats were anesthetized by an i.p. injection of urethane (1 g/kg) and their biliary tract was cannulated. […] Aliquots (10 µl) of plasma, urine, homogenate of feces, or bile were mixed with 20 µl of subtilisin (0.91 U/ml) and incubated at 37 °C for 30 min, followed by the addition of 70 µl of astragaloside IV solution (1 µg/ml in ethanol containing 0.5% formic acid, used as internal standard), and kept at −20 °C for 30 min.

[2] = Concentrations of GL metabolites in plasma of a patient with pseudoaldosteronism (LC-MS/MS); format: in vivo, human; conditions: for plasma concentration, day 0 / concentration at 0 day: patient with licorice-induced pseudoaldosteronism, day 0; for plasma concentration, day 5 / concentration at 5 day: 5 days after stopping the Kampo formula; for concentration at 0 day: female; for concentration at 13 day: day 13
Source text: The patient was a person who had taken a Kampo formula containing licorice for 3 years (1.5 g of licorice for 1 year and 2 months, and 3 g for 1 year and 10 months). On day 0, we found a low plasma potassium level (2.1 mEq/l) and a high creatinine kinase level (364 U/l). Since low plasma renin activity and a low aldosterone level were also found, the patient was diagnosed with pseudoaldosteronism due to licorice. The administration of the Kampo formula was stopped and potassium supplementation of up to 100 mEq/day was started. In the plasma collected on day 0, we detected compound 3 at 8.6 µM, GA at 1.3 µM, and 2 at 87 nM, while 1, GL and 3MGA were not detected. On day 5, the plasma potassium level was still 2.1 mEq/l and potassium supplementation was continued. However, the plasma concentrations of 3 and GA had decreased to 3.6 µM and 0.65 µM, respectively. 2, 1, GL, and 3MGA were not detected. On day 13, the plasma potassium level was increased to 2.8 mEq/l, and the concentrations of 3 and GA were 61 nM and 11 nM, respectively. On day 14, the plasma potassium level was 3.4 mEq/l, and the concentration of 3 was 57 nM; GA was not detected. On day 18, the plasma potassium level had recovered to a normal level (4.9 mEq/l), so potassium supplementation was stopped.
Female SD rats or EHBRs (9-week-old) were anesthetized by an intraperitoneal (i.p.) injection of urethane (1 g/kg) and their jugular veins were exposed. GA suspended in 0.5% CMC was then administered orally (200 mg/kg) to the unconscious rats, and blood samples were collected from the jugular vein; urine samples were collected using a metabolic cage at an appropriate time over a 12-h period. […] Feces were homogenized in phosphate-buffered saline (PBS; 0.15 M, pH 7.2), centrifuged (1.2 × 10^4 g, 10 min), and the supernatants were collected. After 1 week as a washout period, female SD rats were anesthetized by an i.p. injection of urethane (1 g/kg) and their biliary tract was cannulated. GA (0.2 mg/kg) was injected into the jugular vein, and the bile was collected every hour for 4 h. Aliquots (10 µl) of plasma, urine, homogenate of feces, or bile were mixed with 20 µl of subtilisin (0.91 U/ml) and incubated at 37 °C for 30 min, followed by the addition of 70 µl of astragaloside IV solution (1 µg/ml in ethanol containing 0.5% formic acid, used as internal standard), and kept at −20 °C for 30 min. […] The transitions (precursor to daughter) monitored and retention times were as follows: ESI(+) 743.4 to 567.5 m/z for compound 1 (5.5 min), ESI(−) 565.5 to 96.5 m/z for 2 (6.2 min), ESI(−) 549.5 to 96.5 m/z for 3 (8.1 min), ESI(+) 647.6 to 453.6 m/z for 3MGA (9.2 min), ESI(+) 471.3 to 91.0 m/z for GA (8.8 min), ESI(+) 823.5 to 453.6 m/z for GL (10.8 min), and ESI(+) 785.4 to 143.0 m/z for astragaloside IV (3.0 min). Linear regressions over the concentration range of 32 nM to 20 µM for each compound were examined using the peak-area ratio of the compounds to their internal standards and the least-squares method (r^2 > 0.98).
The patient was a person. They provided written informed consent to the use of their blood and urine samples for this study, which was approved by the Independent Ethics Committee of Kameda General Hospital, in accordance with the Declaration of Helsinki. Their anamnesis was follows: hypertension, systemic lupus erythematosus, and antiphospholipid antibody syndrome (for 15 years), necrotic pulmonary aspergillosis (6 years ago), cerebral infarction (14 and 4 years ago, two times), and stomach cancer (3 years ago). After the operation for stomach cancer, the patient had been treated with Kracie Juzentaihoto Extract Granules for Ethical Use (Kracie Pharmaceuticals., Tokyo, Japan). […]

[3] = test system: rat kidney slices; test: Uptake into rat kidney slices from pooled EHBR plasma; format: in vitro ADME, SD rats; conditions: pH 5.5, 2 h
Method: Kidney slices were prepared from SD rats and incubated with the pooled plasma, the pH of which pH was adjusted to 5.5 at 4 °C or 37 °C for 2 h. Figure 4A–C show the amounts of 2, 3, and GA accumulated in the kidney slices.
Figure 4 Uptake of 2 and 3 into rat kidney slices (A–C) or into MDCK II cells stably expressing OAT1 or OAT3 (D–F). Female EHBRs were orally treated with GA (200 mg/kg), and their plasma samples were collected […] after the treatment. The concentrations of compounds 2, 3, and GA in the plasma samples of EHBRs were 7.8, 11.5, and 7.0 µM, respectively. Kidneys were collected from normal SD rats, and the kidney slices were incubated with the plasma samples of EHBRs at 37 °C or 4 °C for 2 h (A–C). MDCK II cells stably expressing OAT1 or OAT3 were incubated with the plasma samples of EHBRs at 37 °C for 15 min (D–F). Then, the concentrations of compounds 2, 3, and GA in kidney slices or the cells were measured by LC-MS/MS. Data are expressed as mean ± S.E. (n = 3 for (C, D), and (E); n = 6 for (A, B), and F). *P < 0.05 and **P < 0.01 vs 4 °C group by Student’s t-test for (A–C), and vs mock cells by Dunnett’s multiple t-test for (D–F).
Uptake studies using rat kidney slices and cells stably expressing OAT1 and OAT3 were conducted with the same protocol as in our previous study. We used the same pooled plasma of female EHBRs orally treated with GA for 12 h as in our previous study.

[4] = Binding to serum albumin by ultrafiltration of pooled EHBR plasma; conditions: female, EHBR (Eisai hyperbilirubinuria rat), oral, 200 mg/kg

amount in accumulated urine collected 12 h after oral treatment [1]	plasma concentration (below detection limit) ([2]; patient plasma sample, LC-MS/MS detection limit)	plasma concentration, day 0 [2]	plasma concentration, day 5 ([2]; patient)	time of plasma peak after oral treatment [1] [h]	concentration at 12 h [1] [nM]	uptake by kidney slices at 37 °C compared with 4 °C [3]	concentration at 0 day ([2]; human, plasma, oral) [nM]	concentration at 5 day ([2]; human, plasma, oral, patient) [nM]	concentration at 13 day ([2]; human, plasma, oral, patient) [nM]	plasma concentration, day 14 ([2]; patient, day 14)	concentration at 12 h ([4]; plasma ultrafiltrate) [nM]	concentration at 12 h ([4]; plasma) [nM]	concentration at 14 day ([2]; human, plasma, oral, patient, day 14) [nM]	plasma concentration, day 18 ([2]; patient, day 18)	Compound
				1	4700	not different	1300	650	11	not detected	< 16	7000			CC1(C)[C@@H](O)CC[C@]2(C)[C@H]3C(=O)C=C4[C@@H]5C[C@@](C)(C(=O)O)CC[C@]5(C)CC[C@@]4(C)[C@]3(C)CC[C@@H]12 [GA, glycyrrhetinic acid, reference compound]
0.03 nmol					300	significantly higher	8600	3600	61		< 3.2	11500	57	below the detectable limit	CC1(C)[C@@H](OS(=O)(=O)O)CC[C@]2(C)[C@H]3C(=O)C=C4[C@@H]5C[C@@](C)(C(=O)O)CC[C@]5(C)CC[C@@]4(C)[C@]3(C)CC[C@@H]12 [compound 3, 18β-glycyrrhetyl-3-O-sulfate]

The remaining lines, values behind:

Compound	amount in accumulated urine collected 12 h after oral treatment [1]	plasma concentration (below detection limit) ([2]; patient plasma sample, LC-MS/MS detection limit)	plasma concentration, day 0 [2]	plasma concentration, day 5 ([2]; patient)	time of plasma peak after oral treatment [1] [h]	concentration at 12 h [1] [nM]	uptake by kidney slices at 37 °C compared with 4 °C [3]	concentration at 0 day ([2]; human, plasma, oral) [nM]	concentration at 5 day ([2]; human, plasma, oral, patient) [nM]	concentration at 13 day ([2]; human, plasma, oral, patient) [nM]	plasma concentration, day 14 ([2]; patient, day 14)	concentration at 12 h ([4]; plasma ultrafiltrate) [nM]	concentration at 12 h ([4]; plasma) [nM]	concentration at 14 day ([2]; human, plasma, oral, patient, day 14) [nM]	plasma concentration, day 18 ([2]; patient, day 18)
CC1(C)[C@@H](O[C@@H]2O[C@H](C(=O)O)[C@@H](O)[C@H](O)[C@H]2O)CC[C@]2(C)[C@H]3C(=O)C=C4[C@@H]5C[C@@](C)(C(=O)O)CC[C@]5(C)CC[C@@]4(C)[C@]3(C)CC[C@@H]12 [3MGA, 3-monoglucuronyl glycyrrhetinic acid, reference compound]	below detectable levels	less than 3.2 nM	not detected	not detected											
CC1(C)[C@@H](OS(=O)(=O)O)CC[C@]2(C)[C@H]3C(=O)C=C4[C@@H]5C[C@@](C)(C(=O)O[C@@H]6O[C@H](C(=O)O)[C@@H](O)[C@H](O)[C@H]6O)C[C@H](O)[C@]5(C)CC[C@@]4(C)[C@]3(C)CC[C@@H]12 [compound 1, 22α-hydroxy-18β-glycyrrhetyl-3-O-sulfate-30-glucuronide]	below detectable levels		not detected	not detected											
CC1(C)[C@@H](OS(=O)(=O)O)CC[C@]2(C)[C@H]3C(=O)C=C4[C@@H]5C[C@@](C)(C(=O)O)C[C@H](O)[C@]5(C)CC[C@@]4(C)[C@]3(C)CC[C@@H]12 [compound 2, 22α-hydroxy-18β-glycyrrhetyl-3-O-sulfate]	below detectable levels			not detected			significantly higher	87				< 3.2	7800		
